Data on twelve compounds can be found in publication PMC7481482, “Development of Anthraquinone Derivatives as Ectonucleoside Triphosphate Diphosphohydrolase (NTPDase) Inhibitors With Selectivity for NTPDase2 and NTPDase3” (Frontiers in Pharmacology, 2020).

Series [1] concerns the target T1, human NTPDase1 (Homo sapiens, UniProt P49961).
T1 construct: expressed in transfected cells; host or cells: COS-7 cells (membrane preparation)
T1 sequence (P49961 1-510): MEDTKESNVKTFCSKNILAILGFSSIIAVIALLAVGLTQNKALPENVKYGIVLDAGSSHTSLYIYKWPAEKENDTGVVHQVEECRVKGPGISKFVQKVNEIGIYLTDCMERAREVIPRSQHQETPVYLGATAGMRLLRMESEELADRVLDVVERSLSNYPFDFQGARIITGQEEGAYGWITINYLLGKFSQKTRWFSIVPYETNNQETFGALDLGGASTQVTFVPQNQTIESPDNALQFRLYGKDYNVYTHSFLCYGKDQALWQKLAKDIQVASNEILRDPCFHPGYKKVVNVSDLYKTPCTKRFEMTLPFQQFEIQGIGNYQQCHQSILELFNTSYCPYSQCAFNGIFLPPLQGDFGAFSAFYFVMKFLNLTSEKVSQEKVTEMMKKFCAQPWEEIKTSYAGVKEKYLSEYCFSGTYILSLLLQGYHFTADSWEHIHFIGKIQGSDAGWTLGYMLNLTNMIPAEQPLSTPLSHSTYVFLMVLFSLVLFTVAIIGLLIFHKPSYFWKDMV
Description: Malachite green assay, human NTPDase1. In kind it is biochemical. Particulars: 2 μM compound; 50 µM ATP; COS-7 membrane preparation; read-out: % inhibition at 2 μM concentration, NTPDase1. The method, boiled down: (§1)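 COS-7 membranes expressing each NTPDase were preincubated with compound for 5 min at 37 °C, pH 7.4 HEPES buffer with 2 mM CaCl2/1 mM MgCl2. ATP was 50 µM for NTPDase1 and 100 µM for -2, -3, -8; reaction ran 15 min at 37 °C. Released phosphate read by malachite green at 600 nm; screen at 2 µM, IC50 over 0.03–30 µM in 2% DMSO.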

Series [2] has as its target T2, human NTPDase2 (Homo sapiens, UniProt Q9Y5L3).
T2 construct: expressed in transfected cells; host or cells: COS-7 cells (membrane preparation)
T2 sequence (Q9Y5L3 1-495): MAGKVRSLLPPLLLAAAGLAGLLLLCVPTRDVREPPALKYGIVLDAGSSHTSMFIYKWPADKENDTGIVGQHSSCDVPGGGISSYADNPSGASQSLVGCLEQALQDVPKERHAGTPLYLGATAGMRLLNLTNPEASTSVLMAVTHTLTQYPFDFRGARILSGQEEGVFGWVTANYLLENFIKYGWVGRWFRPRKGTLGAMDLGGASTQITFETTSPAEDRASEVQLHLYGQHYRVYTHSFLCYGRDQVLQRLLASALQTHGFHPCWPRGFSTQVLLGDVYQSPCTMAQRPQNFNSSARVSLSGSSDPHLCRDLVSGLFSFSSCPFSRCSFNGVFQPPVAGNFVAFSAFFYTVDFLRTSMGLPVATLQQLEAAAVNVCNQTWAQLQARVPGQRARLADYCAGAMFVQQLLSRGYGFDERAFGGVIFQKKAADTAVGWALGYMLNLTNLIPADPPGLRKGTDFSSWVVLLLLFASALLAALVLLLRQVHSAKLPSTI
Briefly: Malachite green assay, human NTPDase2. The following applies: for inhibition at 2 µM: 2 μM compound, read-out: % inhibition at 2 μM concentration, NTPDase2; for inhibition at 2 µM / IC50: 100 µM ATP, COS-7 membrane preparation; for IC50: read-out: IC50 ± SEM, NTPDase2. In kind it is biochemical. The method, boiled down:
as §1

For series [3], the target named is T3, human NTPDase3 (Homo sapiens, UniProt O75355).
T3 construct: expressed in transfected cells; host or cells: COS-7 cells (membrane preparation)
T3 sequence (O75355 1-529): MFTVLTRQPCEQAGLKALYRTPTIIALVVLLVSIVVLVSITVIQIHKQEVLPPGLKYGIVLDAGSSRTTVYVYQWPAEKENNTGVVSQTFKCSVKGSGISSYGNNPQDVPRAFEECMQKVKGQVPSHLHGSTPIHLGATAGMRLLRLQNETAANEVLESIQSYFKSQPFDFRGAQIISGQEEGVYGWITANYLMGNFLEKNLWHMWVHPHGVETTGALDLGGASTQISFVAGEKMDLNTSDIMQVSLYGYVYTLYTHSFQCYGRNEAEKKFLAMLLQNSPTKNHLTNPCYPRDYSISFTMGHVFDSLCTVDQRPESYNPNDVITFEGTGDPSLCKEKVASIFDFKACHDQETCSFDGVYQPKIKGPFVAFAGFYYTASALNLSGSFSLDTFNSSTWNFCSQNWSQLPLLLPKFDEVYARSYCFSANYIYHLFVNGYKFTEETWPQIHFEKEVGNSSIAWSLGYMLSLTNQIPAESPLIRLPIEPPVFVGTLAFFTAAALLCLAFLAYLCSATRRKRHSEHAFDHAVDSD
Briefly: Malachite green assay, human NTPDase3. Particulars: 100 µM ATP, COS-7 membrane preparation; for inhibition at 2 µM: 2 μM compound, read-out: % inhibition at 2 μM concentration, NTPDase3. Format: biochemical. The method, boiled down: as §1

Series [4] addresses T4, human NTPDase8 (Homo sapiens, UniProt Q5MY95).
T4 construct: expressed in transfected cells; host or cells: COS-7 cells (membrane preparation)
T4 sequence (Q5MY95 1-495): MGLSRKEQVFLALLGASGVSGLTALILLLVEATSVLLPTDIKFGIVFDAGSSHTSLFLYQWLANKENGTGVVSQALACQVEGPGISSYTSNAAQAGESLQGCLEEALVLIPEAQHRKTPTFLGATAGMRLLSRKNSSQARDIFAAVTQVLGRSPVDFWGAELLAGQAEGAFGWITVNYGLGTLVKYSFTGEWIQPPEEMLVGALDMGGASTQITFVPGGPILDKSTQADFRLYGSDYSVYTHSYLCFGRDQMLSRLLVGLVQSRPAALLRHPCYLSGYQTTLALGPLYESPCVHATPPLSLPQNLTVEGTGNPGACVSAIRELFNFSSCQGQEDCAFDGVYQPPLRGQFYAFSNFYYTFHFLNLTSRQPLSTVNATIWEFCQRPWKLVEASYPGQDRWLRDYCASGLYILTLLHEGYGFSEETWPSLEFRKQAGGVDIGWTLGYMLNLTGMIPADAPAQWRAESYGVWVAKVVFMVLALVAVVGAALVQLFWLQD
Description: Malachite green assay, human NTPDase8. Format: biochemical. The following applies: 2 μM compound; 100 µM ATP; COS-7 membrane preparation; read-out: % inhibition at 2 μM concentration, NTPDase8. Put shortly:
as §1

The subject of series [5] is rat NTPDase1. Particulars: cited from earlier work; for IC50: rat enzyme, ref Baqi et al., 2009b.
Series [6] relates to rat NTPDase2. Particulars: cited from earlier work; for IC50: rat enzyme, ref Baqi et al., 2009b.
Series [7] concerns rat NTPDase3. The following applies: cited from earlier work; for IC50: rat enzyme, ref Baqi et al., 2009b.
Series [8] concerns rat CD73. More on the design: method as in Baqi et al., 2010. Particulars: 1 mM concentration; ref Baqi et al., 2010; cited from earlier work.

In general, IC50 refers to the point on the concentration scale where inhibition reaches its midpoint. With `Nc1c(S(=O)(=O)O)cc(Nc2ccc3ccccc3c2)c2c1C(=O)c1ccccc1C2=O` [Compound 18], the inhibition at 2 µM in series [1] was -8%; in series [2], 34%; in [3] it was -9%; in series [4], 3%. Besides, the IC50 in series [5] is 328 nM; in series [6], 19100 nM; in series [7], 2220 nM.
Take `Cc1cccc(Nc2cc(S(=O)(=O)O)c(N)c3c2C(=O)c2ccccc2C3=O)c1` [Compound 6, reference compound]: the inhibition at 2 µM is -4% in [1], 22% in series [2], 1% in [3] and -21% in series [4]. For the same compound, the IC50 in series [5] is 51500 nM; in series [6], 12800 nM; in series [7] it was 19100 nM.
For the compound “[TiW11CoO40]^8- [Compound 9, reference compound]”, in [5] (ref Müller et al., 2006), the “inhibition of rat NTPDase1 (concentration range in words)” value is “submicromolar concentration range”. The “inhibition of rat NTPDase2 (concentration range in words)” value in series [6] (ref Müller et al., 2006) is “submicromolar concentration range”. Moreover, the “inhibition of rat NTPDase3 (concentration range in words)” value in series [7] (ref Müller et al., 2006) is on record as “submicromolar concentration range”.
As a reminder, the melting point is the temperature of the solid-liquid transition. On to `Nc1c(S(=O)(=O)[O-])cc(Nc2cccc(Cl)c2Cl)c2c1C(=O)c1ccccc1C2=O.[Na+]` [Compound 34, Sodium 1-amino-4-(2,3-dichlorophenylamino)-9,10-dioxo-9,10-dihydroanthracene-2-sulfonate], for which the melting point was over 300 °C. In addition, the inhibition at 2 µM in [1] came out at 1%. Moreover, the inhibition at 2 µM in [2] was determined as 16%. Moreover, the inhibition at 2 µM in series [3] was -2%. In addition, the inhibition at 2 µM in series [4] was found to be 7%.
The compound `COc1ccc(Sc2ccc(Nc3cc(S(=O)(=O)[O-])c(N)c4c3C(=O)c3ccccc3C4=O)cc2)cc1.[Na+]` [Compound 47, Sodium 1-amino-4-[4-(4-methoxyphenylthio)phenylamino]-9,10-dioxo-9,10-dihydroanthracene-2-sulfonate] returned a melting point of over 300 °C. The inhibition at 2 µM in [1] is 34%. In addition, the IC50 in series [2] stood at 951 ± 225 nM. Further, in [3], the inhibition at 2 µM was 16%. For the same compound, the inhibition at 2 µM in series [4] stood at 4%.
In the case of `Nc1c(S(=O)(=O)[O-])cc(Nc2cccc(I)c2)c2c1C(=O)c1ccccc1C2=O.[Na+]` [Compound 23, Sodium 1-amino-4-(3-iodophenylamino)-9,10-dioxo-9,10-dihydroanthracene-2-sulfonate], the melting point is over 300 °C. The inhibition at 2 µM in series [1] was 0%. In series [2], the inhibition at 2 µM stood at 21%. Further, the inhibition at 2 µM in series [3] worked out at 2%. The inhibition at 2 µM in series [4] was 4%.
Consider `Nc1c(S(=O)(=O)O)cc(Nc2cc3ccccc3c3ccccc23)c2c1C(=O)c1ccccc1C2=O` [Compound 20, 1-amino-4-(9-phenanthrylamino)-9,10-dioxo-9,10-dihydroanthracene-2-sulfonate], for which the inhibition at 2 µM in [1] is -7%; in series [3], -5%; in series [4] it was 6%. For the same compound, the IC50 in series [2] came to 539 ± 290 nM. In series [2] (Hanes-Woolf plot, 25-200 µM ATP, inhibitor 0, 0.25, 0.5, 1 µM), the “inhibition type, NTPDase2” value is on record as “non-competitive”. Moreover, the “% inhibition of CD73 at 1 mM concentration” value in series [8] was 58%.
The compound `CCc1cccc(Nc2cc(Br)c(N)c3c2C(=O)c2ccccc2C3=O)c1` [Compound 53, 1-Amino-2-bromo-4-(3-ethylphenylamino)anthracene-9,10-dione] registered a melting point of 229 to 230 °C. For the same compound, the inhibition at 2 µM in series [1] is -4%. Moreover, the inhibition at 2 µM in series [2] stood at 5%. In addition, the inhibition at 2 µM in series [3] was -2%. Also, the inhibition at 2 µM in [4] was -4%.
Compound `Nc1c(S(=O)(=O)[O-])cc(Nc2cccc(Sc3ccccc3)c2)c2c1C(=O)c1ccccc1C2=O.[Na+]` [Compound 41, Sodium 1-amino-4-(3-(phenylsulfanyl)phenylamino)-9,10-dioxo-9,10-dihydroanthracene-2-sulfonate] returned a melting point of over 300 °C. The inhibition at 2 µM in series [1] came to 1%. For the same compound, the IC50 in series [2] worked out at 984 ± 327 nM. Also, the inhibition at 2 µM in [3] was 10%. In series [4], the inhibition at 2 µM turned out to be 6%.
`Nc1c(S(=O)(=O)[O-])cc(Nc2cccc(CC(=O)O)c2)c2c1C(=O)c1ccccc1C2=O.[Na+]` [Compound 30, Sodium 1-amino-4-(3-(carboxymethyl)phenylamino)-9,10-dioxo-9,10-dihydroanthracene-2-sulfonate]: the melting point is over 300 °C. Further, the inhibition at 2 µM in series [1] was -6%. Besides, the inhibition at 2 µM in [2] stood at 7%. Further, the IC50 in [3] (read-out: IC50 ± SEM, NTPDase3) was 1520 ± 280 nM. In addition, in [4], the inhibition at 2 µM was -11%.
Compound `Nc1c(S(=O)(=O)[O-])cc(Nc2ccc(CO)cc2)c2c1C(=O)c1ccccc1C2=O.[Na+]` [Compound 29, Sodium 1-amino-4-(4-(hydroxymethyl)phenylamino)-9,10-dioxo-9,10-dihydroanthracene-2-sulfonate] yielded a melting point of over 300 °C. In addition, the inhibition at 2 µM in [1] is -4%. Besides, in series [2], the inhibition at 2 µM was 5%. Further, in series [3], the inhibition at 2 µM is -3%. The inhibition at 2 µM in series [4] was -4%.
In turn, `O=C1c2ccccc2C(=O)c2c(Nc3cccc(F)c3)cc(S(=O)(=O)O)cc21` [Compound 57, 4-(3-Fluorophenylamino)-9,10-dioxo-9,10-dihydroanthracene-2-sulfonic acid] displayed a melting point of over 300 °C. The inhibition at 2 µM in [1] was determined as 14%. The inhibition at 2 µM in [2] is -6%. For the same compound, the inhibition at 2 µM in [3] stood at 9%. The inhibition at 2 µM in series [4] is -1%.
